Where “and” joins values, the source holds several entries; their conditions need not be identical. Equal entries are not always repeated.
Q: For `CCCCCCCOc1ccc(C(=O)O)cc1` [4-n-heptyloxybenzoic acid], which melting point is on record?
A: The melting point was 93 °C.

Q: With `CCCCCCCCOc1ccc(C(=O)O)cc1` [4-n-octyloxybenzoic acid] as the compound, how does the melting point read?
A: Its melting point is 103 °C.

Q: Which melting point does the source give for `CCCCCc1ccc(O)cc1` [4-n-pentylphenol] here?
A: Its melting point is 24 °C.

Q: For `Cc1ccc([N+](=O)[O-])cc1C` [4-nitro-1,2-dimethylbenzene], which melting point is on record?
A: Its melting point is 31 °C.

Q: With `O=[N+]([O-])c1ccc(O)c2ccccc12` [4-nitro-1-naphthol] as the compound, how does the melting point read?
A: Its melting point is 166 °C.

Q: For `O=[N+]([O-])c1ccc(NS(=O)(=O)c2ccccc2)cc1` [4-nitro-1-phenylsulfonamidobenzene], which melting point is on record?
A: Its melting point is 138 °C.

Q: For `Cc1cc([N+](=O)[O-])cc[n+]1[O-]` [4-nitro-2-picoline n-oxide], which melting point is on record?
A: Its melting point is 156 °C.

Q: Which melting point does the source give for `O=[N+]([O-])c1ccc(CS(=O)(=O)Cl)cc1` [4-nitro-alpha-toluenesulfonyl chloride] here?
A: The melting point was 92 °C.

Q: For `Nc1ccc([N+](=O)[O-])cc1` [4-nitroaniline] [listing 1 of 2 here], which melting point is on record?
A: The melting point was 148 °C.

Q: For `Nc1ccc([N+](=O)[O-])cc1` [4-nitroaniline] [listing 2 of 2 here], which melting point is on record?
A: The melting point was 148 °C.

Q: With `O=[N+]([O-])c1ccc(C(F)(F)F)cc1` [4-nitrobenzotrifluoride] as the compound, how does the melting point read?
A: Its melting point is 40 °C.

Q: For `O=C(Cl)c1ccc([N+](=O)[O-])cc1` [4-nitrobenzoyl chloride], which melting point is on record?
A: The melting point was 73 °C.

Q: With `O=[N+]([O-])c1ccc(CO)cc1` [4-nitrobenzyl alcohol] as the compound, how does the melting point read?
A: Its melting point is 94 °C.

Q: For `O=[N+]([O-])c1ccc(CBr)cc1` [4-nitrobenzyl bromide], which melting point is on record?
A: Its melting point is 99 °C.

Q: With `CC(=O)Oc1ccc([N+](=O)[O-])cc1` [4-nitrophenyl acetate] as the compound, how does the melting point read?
A: Its melting point is 78 °C.

Q: Which melting point does the source give for `O=[N+]([O-])c1ccc(Oc2ccccc2)cc1` [4-nitrophenyl phenyl ether] here?
A: The melting point was 55 °C.

Q: Which melting point does the source give for `O=C1NC(=O)c2cc([N+](=O)[O-])ccc21` [4-nitrophthalimide] [listing 1 of 2 here] here?
A: Its melting point is 198 °C.

Q: Which melting point does the source give for `O=C1NC(=O)c2cc([N+](=O)[O-])ccc21` [4-nitrophthalimide] [listing 2 of 2 here] here?
A: The melting point was 202 °C.

Q: With `c1ccc(-c2csc(-c3cccnc3)n2)cc1` [4-phenyl-2-(3-pyridyl)thiazole] as the compound, how does the melting point read?
A: Its melting point is 54 °C.

Q: For `c1ccc(N=Nc2ccc(Nc3ccccc3)cc2)cc1` [4-phenylazodiphenylamine], which melting point is on record?
A: The melting point was 83 °C.

Q: For `O=C(O)CCCc1ccccc1` [4-phenylbutyric acid], which melting point is on record?
A: Its melting point is 51 °C.

Q: Which melting point does the source give for `Oc1ccc(-c2ccccc2)cc1` [4-phenylphenol] here?
A: Its melting point is 166 °C.

Q: For `Cc1cc[n+]([O-])cc1` [4-picoline-N-oxide], which melting point is on record?
A: Its melting point is 186 °C and 184 °C.

Q: Which melting point does the source give for `CC(C)(C)c1ccc(O)c(O)c1` [4-tert-butylcatechol] here?
A: Its melting point is 55 °C.

Q: For `CC(C)(C)C1CCC(=O)CC1` [4-tert-butylcyclohexanone], which melting point is on record?
A: The melting point was 49 °C.

Q: With `O=C1CSC(=S)N1c1ccccc1` [4-thiazolidinone, 3-phenyl-2-thioxo-] as the compound, how does the melting point read?
A: Its melting point is 240 °C.

Q: For `CC1(C)OC(=O)NC1=O` [5,5-dimethyloxazolidine-2,4-dione], which melting point is on record?
A: The melting point was 79 °C.

Q: Which melting point does the source give for `Oc1c(Br)cc(Br)c2cccnc12` [5,7-dibromo-8-hydroxyquinoline] here?
A: The melting point was 201 °C.

Q: For `Oc1c(Cl)cc(Cl)c2cccnc12` [5,7-dichloro-8-hydroxyquinoline], which melting point is on record?
A: The melting point was 181 °C.

Q: Which melting point does the source give for `Brc1ccccc1-c1nnn[nH]1` [5-(2-bromophenyl)-1h-tetrazole] here?
A: The melting point was 182 °C.

Q: For `Cc1ccccc1C1C=C(c2ccccc2)N=N1` (stereo not drawn) [5-(2-methylphenyl)-3-phenyl-1H-pyrazole], which melting point is on record?
A: The melting point was 108 °C.

Q: With `Clc1cccc(-c2nnn[nH]2)c1` [5-(3-chlorophenyl)-1h-tetrazole] as the compound, how does the melting point read?
A: Its melting point is 140 °C.

Q: For `c1ccc(Oc2cccc(-c3nnn[nH]3)c2)cc1` [5-(3-phenoxyphenyl)-1h-tetrazole], which melting point is on record?
A: Its melting point is 153 °C.

Q: For `O=C(Nc1ccc([N+](=O)[O-])cc1Cl)c1cc(Cl)ccc1O` [5-Chloro-N-(2-chloro-4-nitrophenyl)-2-hydroxybenzamide], which melting point is on record?
A: The melting point was 223 °C.

Q: Which melting point does the source give for `CCc1nnc(N)s1` [5-Ethyl-1,3,4-thiadiazol-2-amine] here?
A: Its melting point is 201 °C.

Q: Which melting point does the source give for `Cc1ccc2c(c1)no[n+]2[O-]` [5-Methylbenzofurazan oxide] here?
A: Its melting point is 96 °C.

Q: Which melting point does the source give for `CC(=O)c1ccc2c(c1)CCO2` [5-acetyl-2,3-dihydrobenzo[b]furan] here?
A: Its melting point is 58 °C.

Q: With `CC(=O)c1ccc(O)c(C(N)=O)c1` [5-acetylsalicylamide] as the compound, how does the melting point read?
A: The melting point was 221 °C.

Q: For `C=CCC1(c2ccccc2)C(=O)NC(=O)NC1=O` [5-allyl-5-phenylbarbiturate], which melting point is on record?
A: Its melting point is 158 °C.

Q: With `NC(=O)c1c(-c2ccccc2)nn(-c2ccccc2)c1N` [5-amino-1,3-diphenyl-1H-pyrazole-4-carboxamide] as the compound, how does the melting point read?
A: Its melting point is 200 °C.

Q: For `Nc1ccc2[nH]c(C(F)(F)F)nc2c1` [5-amino-2-(trifluoromethyl)benzimidazole], which melting point is on record?
A: The melting point was 188 °C.

Q: For `N#Cc1cccc2c(N)cccc12` [5-aminonaphthalene-1-carbonitrile], which melting point is on record?
A: Its melting point is 137 °C.

Q: Which melting point does the source give for `Nc1cc(Br)cnc1N` [5-bromo-2,3-diaminopyridine] here?
A: The melting point was 157 °C.

Q: Which melting point does the source give for `O=C(O)c1ccc(Br)o1` [5-bromo-2-furoic acid] here?
A: The melting point was 190 °C.

Q: Which melting point does the source give for `Brc1ccc2sccc2c1` [5-bromobenzo[b]thiophene] here?
A: Its melting point is 46 °C.

Q: For `O=C1Cc2cccc(Br)c21` [5-bromobicyclo[4.2.0]octa-1,3,5-trien-7-one], which melting point is on record?
A: The melting point was 82 °C.

Q: Which melting point does the source give for `O=C(Cl)c1cncc(Br)c1` [5-bromonicotinoyl chloride] here?
A: Its melting point is 73 °C.

Q: Which melting point does the source give for `O=C(O)c1cc(Br)ccc1O` [5-bromosalicylic acid] here?
A: Its melting point is 168 °C.

Q: For `O=C(O)c1ccc(Br)s1` [5-bromothiophene-2-carboxylic acid], which melting point is on record?
A: The melting point was 140 °C.

Q: Which melting point does the source give for `COc1cc(C=O)cc(Br)c1O` [5-bromovanillin] here?
A: Its melting point is 164 °C.

Q: With `CCCCC1(CC)C(=O)NC(=O)NC1=O` [5-butyl-5-ethylbarbituric acid] as the compound, how does the melting point read?
A: The melting point was 128 °C.

Q: With `OB(O)c1cc(Cl)c(F)cc1F` [5-chloro-2,4-difluorobenzeneboronic acid] as the compound, how does the melting point read?
A: The melting point was 220 °C.

Q: For `Oc1cc(Cl)ccc1Oc1ccc(Cl)cc1Cl` [5-chloro-2-(2,4-dichlorophenoxy)phenol], which melting point is on record?
A: The melting point was 57 °C.

Q: With `OCc1cc(Cl)ccc1O` [5-chloro-2-hydroxybenzyl alcohol] as the compound, how does the melting point read?
A: The melting point was 86 °C.

Q: Which melting point does the source give for `COc1ccc(Cl)cc1N` [5-chloro-o-anisidine] here?
A: The melting point was 83 °C.

Q: For `[O-][n+]1onc2cc(Cl)ccc21` [5-chlorobenzofuroxan], which melting point is on record?
A: Its melting point is 47 °C.

Q: For `O=Cc1cc(Cl)ccc1O` [5-chlorosalicylaldehyde], which melting point is on record?
A: The melting point was 101 °C.

Q: For `N#Cc1ccc(B(O)O)s1` [5-cyanothiophene-2-boronic acid], which melting point is on record?
A: Its melting point is 127 °C.

Q: Which melting point does the source give for `CCc1cnc(C(=O)O)c(C(=O)O)c1` [5-ethylpyridine-2,3-dicarboxylic acid] here?
A: Its melting point is 153 °C.

Q: With `O=c1[nH]cc(F)c(=O)[nH]1` [5-fluorouracil] as the compound, how does the melting point read?
A: The melting point was 283 °C.

Q: Which melting point does the source give for `Cc1cc(B(O)O)sc1C=O` [5-formyl-4-methylthiophene-2-boronic acid] here?
A: Its melting point is 119 °C.

Q: Which melting point does the source give for `Oc1ccc2[nH]ccc2c1` [5-hydroxyindole] here?
A: Its melting point is 109 °C.

Q: With `COc1ccc(I)cc1N` [5-iodo-2-methoxyaniline] as the compound, how does the melting point read?
A: Its melting point is 86 °C.

Q: For `Cc1ccc(I)cc1N` [5-iodo-2-methylaniline], which melting point is on record?
A: Its melting point is 48 °C.

Q: With `COc1ccc(C(C)C)cc1B(O)O` [5-isopropyl-2-methoxybenzeneboronic acid] as the compound, how does the melting point read?
A: The melting point was 86 °C.

Q: With `CC(C)C1C(=O)NC(=O)NC1=O` [5-isopropylbarbituric acid] as the compound, how does the melting point read?
A: Its melting point is 215 °C.

Q: For `COc1ccc2[nH]c(C)cc2c1` [5-methoxy-2-methylindole], which melting point is on record?
A: The melting point was 87 °C.

Q: For `Cc1[nH]cnc1C=O` [5-methylimidazole-4-carboxaldehyde], which melting point is on record?
A: Its melting point is 168 °C.

Q: With `Cc1cc(C(=O)O)no1` [5-methylisoxazole-3-carboxylic acid] as the compound, how does the melting point read?
A: Its melting point is 172 °C.

Q: With `Cc1ccc(O)c(C(=O)O)c1` [5-methylsalicylic acid] as the compound, how does the melting point read?
A: Its melting point is 153 °C.

Q: With `O=C(O)c1ccc([N+](=O)[O-])o1` [5-nitro-2-furoic acid] as the compound, how does the melting point read?
A: Its melting point is 187 °C.

Q: With `COc1cc(C=O)cc([N+](=O)[O-])c1O` [5-nitrovanillin] as the compound, how does the melting point read?
A: The melting point was 176 °C.

Q: For `CC(C)CCC[C@@H](C)[C@H]1CC[C@H]2[C@@H]3CC[C@H]4CC(=O)CC[C@]4(C)[C@H]3CC[C@]12C` [5alpha-cholestan-3-one], which melting point is on record?
A: The melting point was 130 °C.

Q: For `Nc1ccc2cc(O)ccc2c1` [6-Amino-2-naphthalenol], which melting point is on record?
A: The melting point was 185 °C.

Q: For `CCCc1cc(O)nc(S)n1` [6-Propyl-2-sulfanylpyrimidin-4-ol], which melting point is on record?
A: Its melting point is 220 °C.

Q: Which melting point does the source give for `NCCCCCCO` [6-amino-1-hexanol] here?
A: Its melting point is 57 °C.

Q: With `Cc1nc(N)ccc1Br` [6-amino-3-bromo-2-methylpyridine] as the compound, how does the melting point read?
A: Its melting point is 81 °C.

Q: With `Cc1nc(N)ccc1C#N` [6-amino-3-cyano-2-methylpyridine] as the compound, how does the melting point read?
A: The melting point was 165 °C.

Q: With `OB(O)c1ccc(OCc2ccccc2)nc1` [6-benzyloxypyridine-3-boronic acid] as the compound, how does the melting point read?
A: Its melting point is 109 °C.

Q: Which melting point does the source give for `Cc1cc(Br)ncc1B(O)O` [6-bromo-4-methylpyridine-3-boronic acid] here?
A: Its melting point is 164 °C.

Q: For `COc1cc(Cl)nc(OC)n1` [6-chloro-2,4-dimethoxypyrimidine], which melting point is on record?
A: Its melting point is 72 °C.

Q: Which melting point does the source give for `Cc1cc(B(O)O)cnc1Cl` [6-chloro-5-methylpyridine-3-boronic acid] here?
A: Its melting point is 182 °C.

Q: For `O=C(O)c1ccc2cc(O)ccc2c1` [6-hydroxy-2-naphthoic acid], which melting point is on record?
A: Its melting point is 249 °C.

Q: For `COc1ccc2c(c1)C(=O)CC2` [6-methoxy-1-indanone], which melting point is on record?
A: The melting point was 103 °C.

Q: Which melting point does the source give for `COc1ccc2c(c1)CCCC2=O` [6-methoxy-1-tetralone] here?
A: Its melting point is 79 °C.

Q: With `COc1ccc(C=O)cn1` [6-methoxypyridine-3-carboxaldehyde] as the compound, how does the melting point read?
A: The melting point was 51 °C.

Q: Which melting point does the source give for `Cc1cccc(C=O)n1` [6-methylpyridine-2-carboxaldehyde] here?
A: The melting point was 31 °C.

Q: Which melting point does the source give for `O=c1ccc2cc([N+](=O)[O-])ccc2o1` [6-nitrocoumarin] here?
A: The melting point was 188 °C.

Q: For `C1=CC2=CC=C3C=CC=CC4=C3CC2=C(C=C1)C=C4` [6H-5,7-ethenocyclohepta[b]heptalene], which melting point is on record?
A: Its melting point is 130 °C.

Q: For `CC(=O)OC1CCC2(C)C(CC(=O)C3C4CCC(=O)C4(C)CCC32)C1` (stereo not drawn) [7,17-dioxoandrostan-3-yl acetate], which melting point is on record?
A: The melting point was 165 °C.

Q: For `FC(F)(F)c1ccc2cccnc2c1` [7-(trifluoromethyl)quinoline], which melting point is on record?
A: The melting point was 66 °C.

Q: For `Clc1cccc2c1=NC(c1ccccc1)C=2c1ccccc1` (stereo not drawn) [7-chloro-2,3-diphenyl-1H-indole], which melting point is on record?
A: The melting point was 98 °C.

Q: With `NS(=O)(=O)c1ccc(F)c2nonc12` [7-fluorobenzofurazan-4-sulfonamide] as the compound, how does the melting point read?
A: The melting point was 144 °C.
